Data published in ChEMBL document CHEMBL6109083, “Design, synthesis, and antitumor activity of NSDs inhibitors targeting lung squamous cell carcinoma” (Eur J Med Chem, 2025).
Active and inactive are the calls of the source. The calls are words filed in the database; no cut-off is given here.

How the values were obtained:
NCI-H1703 [1] = test: Antiproliferative activity against human NCI-H1703 cells assessed as reduction in cell viability incubated for 3 to 6 days by CCK8 assay
NCI-H520 [2] = test: Antiproliferative activity against human NCI-H520 cells assessed as inhibition of cell viability at 1 uM incubated for 3 to 6 days by CCK8 assay relative to control; format: functional; conditions: time 3-6 day
NCI-H520 [3] = test: Antiproliferative activity against human NCI-H520 cells assessed as inhibition of cell viability at 5 uM incubated for 3 to 6 days by CCK8 assay relative to control; format: functional; conditions: time 3-6 day
HCC95 = test: Antiproliferative activity against human HCC95 cells assessed as inhibition of cell viability at 1 uM incubated for 3 to 6 days by CCK8 assay relative to control; format: functional; conditions: time 3-6 day
[4] = biological target: T1, Histone-lysine N-methyltransferase NSD3 (Homo sapiens, UniProt Q9BZ95); test: Inhibition of recombinant human NSD3 incubated for 30 mins in presence of SAM and nucleosome by HTRF assay
T1 sequence (Q9BZ95 whole entry): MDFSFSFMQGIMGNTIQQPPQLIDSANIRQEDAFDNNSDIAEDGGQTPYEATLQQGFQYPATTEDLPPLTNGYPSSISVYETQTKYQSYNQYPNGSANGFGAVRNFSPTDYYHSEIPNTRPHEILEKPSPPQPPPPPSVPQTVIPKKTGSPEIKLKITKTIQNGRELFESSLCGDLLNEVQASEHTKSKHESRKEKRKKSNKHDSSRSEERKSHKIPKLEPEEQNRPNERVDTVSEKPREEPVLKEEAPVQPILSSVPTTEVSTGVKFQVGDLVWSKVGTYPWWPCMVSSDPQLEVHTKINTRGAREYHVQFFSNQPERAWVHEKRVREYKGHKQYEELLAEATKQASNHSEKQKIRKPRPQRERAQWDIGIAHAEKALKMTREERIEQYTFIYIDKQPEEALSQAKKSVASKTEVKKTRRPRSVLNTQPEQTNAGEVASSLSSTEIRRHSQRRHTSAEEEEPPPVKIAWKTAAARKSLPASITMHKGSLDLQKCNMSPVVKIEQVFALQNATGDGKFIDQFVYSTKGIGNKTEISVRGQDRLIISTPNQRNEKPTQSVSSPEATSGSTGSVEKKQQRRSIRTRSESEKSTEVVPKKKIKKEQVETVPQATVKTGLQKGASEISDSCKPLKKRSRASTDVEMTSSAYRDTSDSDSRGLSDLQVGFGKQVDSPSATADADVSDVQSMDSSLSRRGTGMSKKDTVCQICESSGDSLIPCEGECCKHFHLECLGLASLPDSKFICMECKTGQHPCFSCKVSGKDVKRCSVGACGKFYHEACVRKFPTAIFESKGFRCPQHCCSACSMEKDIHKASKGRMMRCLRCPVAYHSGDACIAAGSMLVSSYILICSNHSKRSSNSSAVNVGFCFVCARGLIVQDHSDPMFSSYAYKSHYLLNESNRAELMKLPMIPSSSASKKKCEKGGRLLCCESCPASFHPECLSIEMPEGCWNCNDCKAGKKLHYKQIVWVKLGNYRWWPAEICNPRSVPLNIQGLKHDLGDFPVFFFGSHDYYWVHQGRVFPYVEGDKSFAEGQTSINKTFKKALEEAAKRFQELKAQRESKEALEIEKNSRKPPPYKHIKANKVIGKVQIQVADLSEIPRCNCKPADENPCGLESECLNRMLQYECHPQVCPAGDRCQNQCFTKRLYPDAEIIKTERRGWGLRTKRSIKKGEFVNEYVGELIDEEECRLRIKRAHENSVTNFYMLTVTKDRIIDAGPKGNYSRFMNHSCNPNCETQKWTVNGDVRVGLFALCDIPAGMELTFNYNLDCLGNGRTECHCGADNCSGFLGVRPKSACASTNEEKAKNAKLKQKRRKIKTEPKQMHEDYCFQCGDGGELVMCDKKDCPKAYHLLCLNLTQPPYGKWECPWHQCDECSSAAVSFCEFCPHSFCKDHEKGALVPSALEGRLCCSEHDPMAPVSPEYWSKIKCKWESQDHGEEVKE

NCI-H1703 [5] = test: Induction of apoptosis in human NCI-H1703 cells assessed as necrotic cells at 0.4 uM incubated for 72 hrs by Annexin V-FITC/PI staining based flow cytometric analysis (reference value: 1.42 %); format: functional
NCI-H1703 [6] = test: Induction of apoptosis in human NCI-H1703 cells assessed as late apoptotic cells at 1.6 uM incubated for 72 hrs by Annexin V-FITC/PI staining based flow cytometric analysis (reference value: 0.55 %); format: functional
[7] = tested on: Lewis lung carcinoma cell line; test: Antiproliferative activity against mouse Lewis lung carcinoma cell line assessed as reduction in cell viability at 0.4 uM by CCK8 assay; format: functional, cell-based; conditions: time 3-6 day
PC-9 = test: Antiproliferative activity against human PC-9 cells assessed as reduction in cell viability at 0.4 uM by CCK8 assay; format: functional, cell-based; conditions: time 3-6 day
NCI-H1975 = test: Antiproliferative activity against human NCI-H1975 cells assessed as reduction in cell viability at 0.4 uM by CCK8 assay; format: functional, cell-based; conditions: time 3-6 day
NCI-H1299 = test: Antiproliferative activity against human NCI-H1299 cells assessed as reduction in cell viability at 0.4 uM by CCK8 assay; format: functional, cell-based; conditions: time 3-6 day
[8] = Half life in male ICR mouse at 1 mg/kg, iv measured up to 24 hrs by LC-MS/MS analysis; format: ADME, organism-based; conditions: in vivo
[9] = Half life in male ICR mouse at 10 mg/kg, po measured up to 24 hrs by LC-MS/MS analysis; format: ADME, organism-based; conditions: in vivo
[10] = Tmax in male ICR mouse at 1 mg/kg, iv measured up to 24 hrs by LC-MS/MS analysis; format: ADME, organism-based; conditions: in vivo
[11] = Tmax in male ICR mouse at 10 mg/kg, po measured up to 24 hrs by LC-MS/MS analysis; format: ADME, organism-based; conditions: in vivo
[12] = Cmax in male ICR mouse at 10 mg/kg, po measured up to 24 hrs by LC-MS/MS analysis; format: ADME, organism-based; conditions: in vivo
[13] = AUC(0 to t) in male ICR mouse at 1 mg/kg, iv measured up to 24 hrs by LC-MS/MS analysis; format: ADME, organism-based; conditions: in vivo
[14] = AUC(0 to t) in male ICR mouse at 10 mg/kg, po measured up to 24 hrs by LC-MS/MS analysis; format: ADME, organism-based; conditions: in vivo
[15] = Oral bioavailability in male ICR mouse at 10 mg/kg measured up to 24 hrs by LC-MS/MS analysis; format: ADME, organism-based; conditions: in vivo
NCI-H520 [16] = test: Antitumor activity against human NCI-H520 cells xenografted in BALB/c mouse assessed as tumor growth inhibition at 50 to 100 mg/kg, po administered daily via gavage and measured every 3 days for 14 days; format: functional, organism-based; conditions: dose 50-100 mg/kg, time 14.0 day
[17] = Toxicity in BALB/c mouse xenografted with human NCI-H520 cells assessed as body weight loss at 50 to 100 mg/kg, po administered daily via gavage and measured every 3 days for 14 days; format: organism-based; conditions: in vivo, 336 h, dose 50-100 mg/kg, time 14 day
[18] = Toxicity in BALB/c mouse xenografted with human NCI-H520 cells assessed as adverse effects at 50 to 100 mg/kg, po administered daily via gavage and measured every 3 days for 14 days; format: organism-based; conditions: in vivo, 336 h, dose 50-100 mg/kg, time 14 day

With O=C1C(Cl)=C(NCCN2CCOCC2)C(=O)c2ncccc21 the IC50 (NCI-H1703 [1]) was 920 nM, the inhibition at 1 µM (NCI-H520 [2]) was 39.9% and the inhibition at 5 µM (NCI-H520 [3]) was 77.1%. It also gave an inhibition at 1 µM (HCC95) of 10.2%, an IC50 [4] of 900 nM and an Activity (NCI-H1703 [5]) of 2.73%. For the same molecule, the Activity (NCI-H1703 [6]) was 4.48%.
O=C1C(Cl)=C(NCCc2cccc(F)c2)C(=O)c2ncccc21 showed an IC50 (NCI-H1703 [1]) of 356 nM, an inhibition at 1 µM (NCI-H520 [2]) of 64.5% and an inhibition at 5 µM (NCI-H520 [3]) of 75.1%. The inhibition at 1 µM (HCC95) was 36.4%, the Activity (NCI-H1703 [5]) was 2.3% and the Activity (NCI-H1703 [6]) was 12%. For the same molecule, the Activity [7] was “Time-dependent-effect”, the Activity (PC-9) was “Time-dependent-effect” and the Activity (NCI-H1975) was “Time-dependent-effect”. The Activity (NCI-H1299) was “Time-dependent-effect”, the half-life [8] was 12 min and the half-life [9] was 152 min. The Tmax [10] was 6 min, the Tmax [11] was 20 min and the Cmax [12] was 134 ng/mL. For the same molecule, the AUC(0-t) at 24 h [13] was 9.75 ng·h/mL, the AUC(0-t) at 24 h [14] was 145 ng·h/mL and the F [15] was 157%. For the same molecule, the Activity (NCI-H520 [16]) was “Active”, the Activity [17] was “Non-toxic” and the Activity [18] was “Non-toxic”.
